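Assay format: 96-well plates, 48-hour exposure. The concentration for 50% growth inhibition is given as GI50.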 The source made the active and inactive calls. No stated cut-off is given here; in the data, active = GI50 up to about 1.1 µM and inactive = higher.
What was measured:
Assay in all cases: NCI tumour cell line growth inhibition, 48 h
RPMI-8226 = test system: RPMI-8226
OVCAR-3 = test system: OVCAR-3
HCT-15 = test system: HCT-15
UACC-62 = test system: UACC-62
SN12C = test system: SN12C
ACHN = test system: ACHN
LOX IMVI = test system: LOX IMVI
COLO 205 = test system: COLO 205
UO-31 = test system: UO-31
OVCAR-5 = test system: OVCAR-5
IGROV-1 = test system: IGROV-1
K562 = test system: K562
DU-145 = test system: DU-145
SK-MEL-5 = test system: SK-MEL-5
NCI-H522 = test system: NCI-H522
A549 = test system: A549
SR = test system: SR
CCRF-CEM = test system: CCRF-CEM
RXF 393 = test system: RXF 393
HCC 2998 = test system: HCC 2998

SMILES	GI50 (RPMI-8226)	GI50 (OVCAR-3)	GI50 (HCT-15) [µM]	GI50 (UACC-62)	GI50 (SN12C)	GI50 (ACHN)	GI50 (LOX IMVI)	GI50 (COLO 205)	GI50 (UO-31)	GI50 (OVCAR-5)	GI50 (IGROV-1)	GI50 (K562)	GI50 (DU-145)	GI50 (SK-MEL-5)	GI50 (NCI-H522)	GI50 (A549)	GI50 (SR)	GI50 (CCRF-CEM)	GI50 (RXF 393)	GI50 (HCC 2998)
CN(C)CCNCCN	> 100 µM (inactive)	> 100 µM (inactive)	> 100	> 100 µM (inactive)	> 100 µM (inactive)	> 100 µM (inactive)	> 100 µM (inactive)	> 100 µM (inactive)	> 100 µM (inactive)	> 100 µM (inactive)	> 100 µM (inactive)	> 100 µM (inactive)	> 100 µM (inactive)	> 100 µM (inactive)	> 100 µM (inactive)	> 100 µM (inactive)	> 100 µM (inactive)	–	–	–
CN(C)CCCCN1CCc2c(n(C)c3ccccc23)C1=O	–	> 78.9 µM (inactive)	39.4	26 µM (inactive)	68.1 µM (inactive)	> 77.1 µM (inactive)	25.9 µM (inactive)	35.3 µM (inactive)	56.9 µM (inactive)	–	> 72.6 µM (inactive)	23.4 µM (inactive)	> 84.5 µM (inactive)	21.3 µM (inactive)	55.3 µM (inactive)	64.7 µM (inactive)	–	67.9 µM (inactive)	31.5 µM (inactive)	–
OCc1cc2c([nH]c3ccccc32)c(C(O)CO)n1 (stereo not given)	> 100 µM (inactive)	> 100 µM (inactive)	> 100	> 100 µM (inactive)	> 100 µM (inactive)	> 100 µM (inactive)	> 100 µM (inactive)	> 100 µM (inactive)	> 100 µM (inactive)	> 100 µM (inactive)	> 100 µM (inactive)	> 100 µM (inactive)	> 100 µM (inactive)	> 100 µM (inactive)	> 100 µM (inactive)	> 100 µM (inactive)	–	> 100 µM (inactive)	–	> 100 µM (inactive)
O=C(/C=C1\Nc2ccc([N+](=O)[O-])cc2N=C1NC12CC3CC(CC(C3)C1)C2)c1ccccc1	–	> 10 µM (inactive)	> 10	–	> 10 µM (inactive)	> 10 µM (inactive)	> 10 µM (inactive)	> 10 µM (inactive)	> 10 µM (inactive)	> 10 µM (inactive)	> 10 µM (inactive)	–	> 10 µM (inactive)	> 10 µM (inactive)	> 10 µM (inactive)	–	–	–	6.53 µM (inactive)	> 10 µM (inactive)
CCOC(=O)c1nc2cc(C(F)(F)F)ccc2nc1Nc1ccc(F)cc1	6.21 µM (inactive)	44.8 µM (inactive)	37.4	25.5 µM (inactive)	> 100 µM (inactive)	–	> 100 µM (inactive)	97.3 µM (inactive)	–	> 100 µM (inactive)	34.8 µM (inactive)	13.3 µM (inactive)	> 100 µM (inactive)	47.8 µM (inactive)	–	18 µM (inactive)	–	19.5 µM (inactive)	53.5 µM (inactive)	19.6 µM (inactive)
O=c1[nH]nc(Cc2ccccc2)n1O	> 100 µM (inactive)	> 100 µM (inactive)	–	> 100 µM (inactive)	> 100 µM (inactive)	> 100 µM (inactive)	> 100 µM (inactive)	> 100 µM (inactive)	> 100 µM (inactive)	–	> 100 µM (inactive)	> 100 µM (inactive)	> 100 µM (inactive)	> 100 µM (inactive)	> 100 µM (inactive)	> 100 µM (inactive)	> 100 µM (inactive)	> 100 µM (inactive)	–	–
C=CCOc1ccc(C(=N/NC(=O)c2ccccc2)/N=N/c2ccc(C)cc2)cc1OC	–	25.9 µM (inactive)	35.1	14.3 µM (inactive)	31.7 µM (inactive)	34.8 µM (inactive)	14.7 µM (inactive)	16.5 µM (inactive)	24.8 µM (inactive)	42.6 µM (inactive)	18.7 µM (inactive)	–	37.2 µM (inactive)	17.9 µM (inactive)	16.4 µM (inactive)	26.2 µM (inactive)	6.17 µM (inactive)	9.14 µM (inactive)	–	18.7 µM (inactive)
COc1cc2c(cc1O)C1Cc3ccc(OC)c(O)c3C(C2)N1C (stereo not given)	> 100 µM (inactive)	> 100 µM (inactive)	> 100	> 100 µM (inactive)	> 100 µM (inactive)	> 100 µM (inactive)	> 100 µM (inactive)	> 100 µM (inactive)	> 100 µM (inactive)	> 100 µM (inactive)	> 100 µM (inactive)	–	> 100 µM (inactive)	> 100 µM (inactive)	> 100 µM (inactive)	> 100 µM (inactive)	–	> 100 µM (inactive)	> 100 µM (inactive)	> 100 µM (inactive)
CCOP(=O)(OCC)OC1c2[nH]ccc2-c2cc(C(=O)OC)[nH]c2C1OC (stereo not given)	–	> 100 µM (inactive)	59.3	45.8 µM (inactive)	> 100 µM (inactive)	> 100 µM (inactive)	> 100 µM (inactive)	> 100 µM (inactive)	46.3 µM (inactive)	> 100 µM (inactive)	> 100 µM (inactive)	> 100 µM (inactive)	> 100 µM (inactive)	38.5 µM (inactive)	> 100 µM (inactive)	> 100 µM (inactive)	–	> 100 µM (inactive)	> 100 µM (inactive)	> 100 µM (inactive)
O=C1/C(=C/c2ccco2)NC(=S)N1CN1CCCCC1	28.8 µM (inactive)	> 100 µM (inactive)	28.6	57.9 µM (inactive)	> 100 µM (inactive)	34 µM (inactive)	33.7 µM (inactive)	51.4 µM (inactive)	26.9 µM (inactive)	> 100 µM (inactive)	81.3 µM (inactive)	60.1 µM (inactive)	> 100 µM (inactive)	57.8 µM (inactive)	> 100 µM (inactive)	> 100 µM (inactive)	34.5 µM (inactive)	21.8 µM (inactive)	–	–
Cn1c(=O)c2c(ncn2Cc2ccc(O)c([N+](=O)[O-])c2)n(C)c1=O	> 100 µM (inactive)	> 100 µM (inactive)	> 100	> 100 µM (inactive)	> 100 µM (inactive)	> 100 µM (inactive)	> 100 µM (inactive)	> 100 µM (inactive)	> 100 µM (inactive)	> 100 µM (inactive)	> 100 µM (inactive)	> 100 µM (inactive)	> 100 µM (inactive)	> 100 µM (inactive)	> 100 µM (inactive)	> 100 µM (inactive)	> 100 µM (inactive)	> 100 µM (inactive)	–	–
CC1CC/C(=C\c2ccc(F)cc2)C2=C1C(c1ccc(F)cc1)NC(=S)N2 (stereo not given)	18.1 µM (inactive)	33.8 µM (inactive)	41	> 100 µM (inactive)	97.7 µM (inactive)	54.3 µM (inactive)	48.2 µM (inactive)	30.6 µM (inactive)	23.2 µM (inactive)	–	43.5 µM (inactive)	35.5 µM (inactive)	46.8 µM (inactive)	31 µM (inactive)	–	–	–	68.5 µM (inactive)	25.2 µM (inactive)	–
CCOc1ccc2nc3cc(/N=N/c4ccc(N)nc4N)ccc3c(N)c2c1	20 µM (inactive)	1.53 µM (inactive)	37.8	14.8 µM (inactive)	2.17 µM (inactive)	18.2 µM (inactive)	0.419 µM (active)	1.86 µM (inactive)	28.4 µM (inactive)	21.1 µM (inactive)	23.6 µM (inactive)	0.299 µM (active)	6.65 µM (inactive)	17.3 µM (inactive)	2.99 µM (inactive)	15 µM (inactive)	–	0.136 µM (active)	2.19 µM (inactive)	1.79 µM (inactive)
COC(=O)C(=O)C(C(=O)C(=O)Nc1cccc(OC)c1)c1nc2ccc(Cl)cc2nc1O (stereo not given)	> 100 µM (inactive)	> 100 µM (inactive)	> 100	89.3 µM (inactive)	> 100 µM (inactive)	> 100 µM (inactive)	> 100 µM (inactive)	> 100 µM (inactive)	> 100 µM (inactive)	> 100 µM (inactive)	> 100 µM (inactive)	> 100 µM (inactive)	> 100 µM (inactive)	> 100 µM (inactive)	> 100 µM (inactive)	> 100 µM (inactive)	–	12.9 µM (inactive)	–	96.2 µM (inactive)
COc1ccc(C(=O)/C=C/c2ccc(OCCSCCCCCCCCCCSCCOc3ccc(/C=C/C(=O)c4ccc(OC)c(OC)c4)cc3)cc2)cc1OC	> 100 µM (inactive)	–	> 100	> 100 µM (inactive)	> 100 µM (inactive)	> 100 µM (inactive)	> 100 µM (inactive)	> 100 µM (inactive)	–	–	> 100 µM (inactive)	> 100 µM (inactive)	> 100 µM (inactive)	> 100 µM (inactive)	73.8 µM (inactive)	> 100 µM (inactive)	> 100 µM (inactive)	> 100 µM (inactive)	–	> 100 µM (inactive)
CCC(CCCCC1CC[C@H]2CC(=O)C[C@@H]12)OC (stereo not given in full)	–	> 100 µM (inactive)	> 100	–	> 100 µM (inactive)	> 100 µM (inactive)	> 100 µM (inactive)	> 100 µM (inactive)	–	> 100 µM (inactive)	> 100 µM (inactive)	26.5 µM (inactive)	> 100 µM (inactive)	79.8 µM (inactive)	> 100 µM (inactive)	> 100 µM (inactive)	–	79.8 µM (inactive)	> 100 µM (inactive)	> 100 µM (inactive)
